Experimental data taken from paper PMC8704367, “Systematic Analysis and Biochemical Characterization of the Caffeoyl Shikimate Esterase Gene Family in Poplar” (International Journal of Molecular Sciences, 2021).

Assays:
Assay type in all cases: biochemical
PoptoCSE1 = target: T1, PoptoCSE1 (Populus tomentosa, UniProt A0A0S1VWX4); assay: HPLC-MS, appearance of caffeic acid; settings: 100 uM substrate, 100 mM sodium phosphate pH 7.5, 0.5 mM DTT, 30 C; substrate made enzymatically with PoptoHCT6
T1 construct: gene CSE1; full-length CDS cloned from cambial zone cDNA into pET28a, His-tagged, E. coli BL21(DE3), Ni-NTA
T1 sequence (A0A0S1VWX4 1-326): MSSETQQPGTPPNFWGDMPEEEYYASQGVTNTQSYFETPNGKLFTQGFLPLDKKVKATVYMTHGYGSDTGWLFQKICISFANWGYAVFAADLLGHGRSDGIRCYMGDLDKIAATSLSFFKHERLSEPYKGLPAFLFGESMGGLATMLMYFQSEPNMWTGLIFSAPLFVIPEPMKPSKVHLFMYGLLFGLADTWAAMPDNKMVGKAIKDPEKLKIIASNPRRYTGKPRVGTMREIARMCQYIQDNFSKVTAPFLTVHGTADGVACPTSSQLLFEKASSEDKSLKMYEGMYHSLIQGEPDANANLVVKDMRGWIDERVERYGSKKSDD

PoptoCSE2 = target: T2, PoptoCSE2 (Populus tomentosa, UniProt A0A0S1VWZ0); assay: HPLC-MS, appearance of caffeic acid; settings: 100 uM substrate, 100 mM sodium phosphate pH 7.5, 0.5 mM DTT, 30 C; substrate made enzymatically with PoptoHCT6
T2 construct: gene CSE2; full-length CDS cloned from cambial zone cDNA into pET28a, His-tagged, E. coli BL21(DE3), Ni-NTA
T2 sequence (A0A0S1VWZ0 1-326): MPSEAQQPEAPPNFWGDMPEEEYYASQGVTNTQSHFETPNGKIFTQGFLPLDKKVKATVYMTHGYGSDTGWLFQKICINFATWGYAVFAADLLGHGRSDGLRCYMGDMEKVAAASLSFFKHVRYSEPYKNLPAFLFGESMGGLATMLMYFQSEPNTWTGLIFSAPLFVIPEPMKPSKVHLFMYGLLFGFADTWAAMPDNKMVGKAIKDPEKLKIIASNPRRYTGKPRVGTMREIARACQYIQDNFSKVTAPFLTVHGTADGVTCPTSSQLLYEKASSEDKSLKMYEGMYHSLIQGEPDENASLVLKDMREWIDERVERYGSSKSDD

PoptoHCT6 = target: T3, PoptoHCT6 (Populus tomentosa, UniProt A0A0S1VWY1); assay: preparative enzymatic synthesis of caffeoyl shikimate
T3 construct: gene HCT6; cloned from cambial zone cDNA into pET28a, His-tagged, E. coli BL21(DE3), Ni-NTA
T3 sequence (A0A0S1VWY1 1-431): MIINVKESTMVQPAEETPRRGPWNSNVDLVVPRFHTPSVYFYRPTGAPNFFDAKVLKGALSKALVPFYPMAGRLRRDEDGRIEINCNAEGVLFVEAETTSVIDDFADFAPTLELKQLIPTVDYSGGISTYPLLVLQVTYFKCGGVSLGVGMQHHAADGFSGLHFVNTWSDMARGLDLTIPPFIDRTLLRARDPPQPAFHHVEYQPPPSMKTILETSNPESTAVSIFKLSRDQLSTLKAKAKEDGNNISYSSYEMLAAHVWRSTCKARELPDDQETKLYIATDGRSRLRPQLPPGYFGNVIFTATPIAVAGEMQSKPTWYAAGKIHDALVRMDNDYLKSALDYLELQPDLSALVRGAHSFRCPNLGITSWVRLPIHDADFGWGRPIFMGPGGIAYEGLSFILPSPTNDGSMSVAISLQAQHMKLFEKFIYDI

O=C(/C=C/c1ccc(O)c(O)c1)O[C@@H]1CC(C(=O)O)=C[C@@H](O)[C@H]1O [caffeoyl shikimate]
HPLC-MS, appearance of caffeic acid (PoptoCSE1): PoptoCSE1 and PoptoCSE2 have detectable activity against caffeoyl shikimate | HPLC-MS, appearance of caffeic acid (PoptoCSE2): PoptoCSE1 and PoptoCSE2 have detectable activity against caffeoyl shikimate

CC(C)(COP(=O)(O)OP(=O)(O)OC[C@H]1O[C@@H](n2cnc3c(N)ncnc32)[C@H](O)[C@@H]1OP(=O)(O)O)[C@@H](O)C(=O)NCCC(=O)NCCSC(=O)/C=C/c1ccc(O)c(O)c1 [caffeoyl-CoA]
preparative enzymatic synthesis of caffeoyl shikimate (PoptoHCT6; co-substrate shikimic acid): caffeoyl shikimate using enzymatic reaction catalyzed by purified recombinant PoptoHCT6 with caffeoyl-CoA and shikimic acid

O=C(O)C1=C[C@@H](O)[C@@H](O)[C@H](O)C1 [shikimic acid]
preparative enzymatic synthesis of caffeoyl shikimate (PoptoHCT6; co-substrate caffeoyl-CoA): caffeoyl shikimate using enzymatic reaction catalyzed by purified recombinant PoptoHCT6 with caffeoyl-CoA and shikimic acid
